In ChEMBL document CHEMBL5257044, “Arylnaphthalene Lignans with Anti-SARS-CoV-2 and Antiproliferative Activities from the Underground Organs of Linum austriacum and Linum perenne” (J Nat Prod, 2023):
pIC50: −log10 of the molar value.

Test system: SARS-CoV-2
Experiment: Antiviral activity against SARS-COV2 EPI_ISL_1172022 infected in african green monkey Vero E6 cells assessed as log reduction in viable virus at 12.5 uM incubated for 48 hrs by RT-qPCR analysis
Format: functional, Severe acute respiratory syndrome coronavirus 2
Conditions: not given
For `COc1cc2cc3c(c(-c4ccc5c(c4)OCO5)c2cc1OC)C(=O)OC3`, the “log(activity)” value was greater than 3. In the case of `COc1cc2c(O)c3c(c(-c4ccc5c(c4)OCO5)c2cc1OC)C(=O)OC3` [DIPHYLLIN], the “log(activity)” value was greater than 3.

Test system: not listed separately
Experiment: Cytotoxicity against African green monkey Vero E6 cells incubated for 48 hrs by CCK-8 assay
Format: toxicity, cell-based, Vero C1008
Conditions: African green monkey (Chlorocebus sabaeus)
Work on `COc1cc2c(O)c3c(c(-c4ccc5c(c4)OCO5)c2cc1OC)C(=O)OC3` [DIPHYLLIN] yielded an IC50 at 48 h greater than 100 µM.

Test system: A549
Experiment: Cytotoxicity against human A549 cells incubated for 24 hrs by AlamarBlue staining based analysis
Format: functional, cell-based
Conditions: A549, 24 h
In the case of `COc1cc2cc3c(c(-c4ccc5c(c4)OCO5)c2cc1OC)C(=O)OC3`, the pIC50 was 4.94. `COc1cc2cc(COC(=O)CC(=O)O)c(C(=O)O)c(-c3ccc4c(c3)OCO4)c2cc1OC` showed a pIC50 of less than 4.00. For `COc1cc2cc(COC(=O)CC(=O)O)c(C(=O)O[C@@H]3O[C@H](COC(=O)CC(C)(O)CC(=O)O)[C@@H](O)[C@H](O)[C@H]3O)c(-c3ccc4c(c3)OCO4)c2cc1OC` (some centres undefined), the pIC50 was 4.58. Compound `COc1cc2c(O)c3c(c(-c4ccc5c(c4)OCO5)c2cc1OC)C(=O)OC3` [DIPHYLLIN] has a pIC50 of 5.06.

Test system: NCI-H838
Experiment: Cytotoxicity against human NCI-H838 cells incubated for 24 hrs by AlamarBlue staining based analysis
Format: functional, cell-based
Conditions: NCI-H838, 24 h
For `COc1cc2cc3c(c(-c4ccc5c(c4)OCO5)c2cc1OC)C(=O)OC3`, the pIC50 was 4.96. Work on `COc1cc2cc(COC(=O)CC(=O)O)c(C(=O)O)c(-c3ccc4c(c3)OCO4)c2cc1OC` yielded a pIC50 of less than 4.00. `COc1cc2cc(COC(=O)CC(=O)O)c(C(=O)O[C@@H]3O[C@H](COC(=O)CC(C)(O)CC(=O)O)[C@@H](O)[C@H](O)[C@H]3O)c(-c3ccc4c(c3)OCO4)c2cc1OC` (some centres undefined) gave a pIC50 of 4.80. In the case of `COc1cc2c(O)c3c(c(-c4ccc5c(c4)OCO5)c2cc1OC)C(=O)OC3` [DIPHYLLIN], the pIC50 was 4.80.

Test system: A549
Experiment: Cytotoxicity against human A549 cells measured after 3 days by MTT assay
Format: functional, cell-based
Conditions: A549, 72 h
`COc1cc2c(O)c3c(c(-c4ccc5c(c4)OCO5)c2cc1OC)C(=O)OC3` [DIPHYLLIN] gave a pIC50 of 4.62.

Test system: ECa-109 cell line
Experiment: Antiproliferative activity against human Eca-109 cells measured after 2 days by CCK-8 method
Format: functional, cell-based
Conditions: ECa-109, 48 h
With `COc1cc2c(O)c3c(c(-c4ccc5c(c4)OCO5)c2cc1OC)C(=O)OC3` [DIPHYLLIN] the pIC50 was 6.68.

Test system: SARS-CoV-2
Experiment: Antiviral activity against SARS-COV2 EPI_ISL_1172022 infected in african green monkey Vero E6 cells assessed as inhibition of viral replication incubated for 48 hrs by RT-qPCR analysis
Format: functional, organism-based
Conditions: Severe acute respiratory syndrome coronavirus 2, EPI_ISL_1172022, Vero C1008, 48 h
`COc1cc2cc3c(c(-c4ccc5c(c4)OCO5)c2cc1OC)C(=O)OC3` showed a pIC50 of less than 4.00. With `COc1cc2cc(COC(=O)CC(=O)O)c(C(=O)O)c(-c3ccc4c(c3)OCO4)c2cc1OC` the pIC50 was less than 4.00. For `COc1cc2cc(COC(=O)CC(=O)O)c(C(=O)O[C@@H]3O[C@H](COC(=O)CC(C)(O)CC(=O)O)[C@@H](O)[C@H](O)[C@H]3O)c(-c3ccc4c(c3)OCO4)c2cc1OC` (some centres undefined), the pIC50 was less than 4.00. For `COc1cc2c(O)c3c(c(-c4ccc5c(c4)OCO5)c2cc1OC)C(=O)OC3` [DIPHYLLIN], the pIC50 was less than 4.00.

Test system: HT-29
Experiment: Cytotoxicity against human HT-29 cells incubated for 24 hrs by AlamarBlue staining based analysis
Format: functional, cell-based
Conditions: HT-29, 24 h
In the case of `COc1cc2cc3c(c(-c4ccc5c(c4)OCO5)c2cc1OC)C(=O)OC3`, the pIC50 was 5.23. In the case of `COc1cc2cc(COC(=O)CC(=O)O)c(C(=O)O)c(-c3ccc4c(c3)OCO4)c2cc1OC`, the pIC50 was less than 4.00. Work on `COc1cc2cc(COC(=O)CC(=O)O)c(C(=O)O[C@@H]3O[C@H](COC(=O)CC(C)(O)CC(=O)O)[C@@H](O)[C@H](O)[C@H]3O)c(-c3ccc4c(c3)OCO4)c2cc1OC` (some centres undefined) yielded a pIC50 of 4.70. With `COc1cc2c(O)c3c(c(-c4ccc5c(c4)OCO5)c2cc1OC)C(=O)OC3` [DIPHYLLIN] the pIC50 was 4.71.

Test system: MONO-MAC-6
Experiment: Cytotoxicity against human MONO-MAC-6 cells incubated for 24 hrs by AlamarBlue staining based analysis
Format: functional, cell-based
Conditions: MONO-MAC-6, 24 h
`COc1cc2cc3c(c(-c4ccc5c(c4)OCO5)c2cc1OC)C(=O)OC3` showed a pIC50 of 5.60. In the case of `COc1cc2cc(COC(=O)CC(=O)O)c(C(=O)O)c(-c3ccc4c(c3)OCO4)c2cc1OC`, the pIC50 was 4.15. With `COc1cc2cc(COC(=O)CC(=O)O)c(C(=O)O[C@@H]3O[C@H](COC(=O)CC(C)(O)CC(=O)O)[C@@H](O)[C@H](O)[C@H]3O)c(-c3ccc4c(c3)OCO4)c2cc1OC` (some centres undefined) the pIC50 was 5.15. With `COc1cc2c(O)c3c(c(-c4ccc5c(c4)OCO5)c2cc1OC)C(=O)OC3` [DIPHYLLIN] the pIC50 was 5.41.

Test system: PC-3
Experiment: Cytotoxicity against human PC-3 cells incubated for 24 hrs by AlamarBlue staining based analysis
Format: functional, cell-based
Conditions: PC-3, 24 h
`COc1cc2cc3c(c(-c4ccc5c(c4)OCO5)c2cc1OC)C(=O)OC3` gave a pIC50 of 5.24. Work on `COc1cc2cc(COC(=O)CC(=O)O)c(C(=O)O)c(-c3ccc4c(c3)OCO4)c2cc1OC` yielded a pIC50 of 4.48. With `COc1cc2cc(COC(=O)CC(=O)O)c(C(=O)O[C@@H]3O[C@H](COC(=O)CC(C)(O)CC(=O)O)[C@@H](O)[C@H](O)[C@H]3O)c(-c3ccc4c(c3)OCO4)c2cc1OC` (some centres undefined) the pIC50 was 5.49. With `COc1cc2c(O)c3c(c(-c4ccc5c(c4)OCO5)c2cc1OC)C(=O)OC3` [DIPHYLLIN] the pIC50 was 5.42.

Test system: A549
Experiment: Cytotoxicity against human A549 cells incubated for 24 hrs by MTS assay
Format: functional, cell-based
Conditions: A549, 24 h
`COc1cc2c(O)c3c(c(-c4ccc5c(c4)OCO5)c2cc1OC)C(=O)OC3` [DIPHYLLIN] gave a pIC50 of 5.69.

Test system: HepG2
Experiment: Cytotoxicity against human HepG2 cells incubated for 24 hrs by AlamarBlue staining based analysis
Format: functional, cell-based
Conditions: HepG2, 24 h
In the case of `COc1cc2cc3c(c(-c4ccc5c(c4)OCO5)c2cc1OC)C(=O)OC3`, the pIC50 was 4.77. Work on `COc1cc2cc(COC(=O)CC(=O)O)c(C(=O)O)c(-c3ccc4c(c3)OCO4)c2cc1OC` yielded a pIC50 of less than 4.00. For `COc1cc2cc(COC(=O)CC(=O)O)c(C(=O)O[C@@H]3O[C@H](COC(=O)CC(C)(O)CC(=O)O)[C@@H](O)[C@H](O)[C@H]3O)c(-c3ccc4c(c3)OCO4)c2cc1OC` (some centres undefined), the pIC50 was less than 4.00. For `COc1cc2c(O)c3c(c(-c4ccc5c(c4)OCO5)c2cc1OC)C(=O)OC3` [DIPHYLLIN], the pIC50 was 4.67.

Test system: EBC-1
Experiment: Cytotoxicity against human EBC-1 cells incubated for 24 hrs by AlamarBlue staining based analysis
Format: functional, cell-based
Conditions: EBC-1, 24 h
In the case of `COc1cc2cc3c(c(-c4ccc5c(c4)OCO5)c2cc1OC)C(=O)OC3`, the pIC50 was 4.20. For `COc1cc2cc(COC(=O)CC(=O)O)c(C(=O)O)c(-c3ccc4c(c3)OCO4)c2cc1OC`, the pIC50 was 4.80. In the case of `COc1cc2cc(COC(=O)CC(=O)O)c(C(=O)O[C@@H]3O[C@H](COC(=O)CC(C)(O)CC(=O)O)[C@@H](O)[C@H](O)[C@H]3O)c(-c3ccc4c(c3)OCO4)c2cc1OC` (some centres undefined), the pIC50 was 4.72. Work on `COc1cc2c(O)c3c(c(-c4ccc5c(c4)OCO5)c2cc1OC)C(=O)OC3` [DIPHYLLIN] yielded a pIC50 of 4.83.

Test system: A2058
Experiment: Cytotoxicity against human A2058 cells incubated for 24 hrs by AlamarBlue staining based analysis
Format: functional, cell-based
Conditions: A2058, 24 h
`COc1cc2cc3c(c(-c4ccc5c(c4)OCO5)c2cc1OC)C(=O)OC3` gave a pIC50 of 5.05. `COc1cc2cc(COC(=O)CC(=O)O)c(C(=O)O)c(-c3ccc4c(c3)OCO4)c2cc1OC` gave a pIC50 of 4.60. In the case of `COc1cc2cc(COC(=O)CC(=O)O)c(C(=O)O[C@@H]3O[C@H](COC(=O)CC(C)(O)CC(=O)O)[C@@H](O)[C@H](O)[C@H]3O)c(-c3ccc4c(c3)OCO4)c2cc1OC` (some centres undefined), the pIC50 was 5.62. `COc1cc2c(O)c3c(c(-c4ccc5c(c4)OCO5)c2cc1OC)C(=O)OC3` [DIPHYLLIN] gave a pIC50 of 5.59.

Test system: TE-1
Experiment: Antiproliferative activity against human TE-1 cells measured after 2 days by CCK-8 method
Format: functional, cell-based
Conditions: TE-1, 48 h
With `COc1cc2c(O)c3c(c(-c4ccc5c(c4)OCO5)c2cc1OC)C(=O)OC3` [DIPHYLLIN] the pIC50 was 6.55.

Test system: RPMI-8226
Experiment: Cytotoxicity against human RPMI-8226 cells assessed as reduction in cell viability measured after 72 hrs by MTT assay
Format: functional, cell-based
Conditions: RPMI-8226, 72 h
`COc1cc2cc3c(c(-c4ccc5c(c4)OCO5)c2cc1OC)C(=O)OC3` showed a pIC50 of 6.77.

Test system: not listed separately
Experiment: Cytotoxicity against human U87 cells incubated for 24 hrs by AlamarBlue staining based analysis
Format: functional, cell-based, U-87MG ATCC
Conditions: U-87 MG
With `COc1cc2cc3c(c(-c4ccc5c(c4)OCO5)c2cc1OC)C(=O)OC3` the pIC50 was 4.67. With `COc1cc2cc(COC(=O)CC(=O)O)c(C(=O)O)c(-c3ccc4c(c3)OCO4)c2cc1OC` the pIC50 was less than 4.00. `COc1cc2cc(COC(=O)CC(=O)O)c(C(=O)O[C@@H]3O[C@H](COC(=O)CC(C)(O)CC(=O)O)[C@@H](O)[C@H](O)[C@H]3O)c(-c3ccc4c(c3)OCO4)c2cc1OC` (some centres undefined) gave a pIC50 of less than 4.00. `COc1cc2c(O)c3c(c(-c4ccc5c(c4)OCO5)c2cc1OC)C(=O)OC3` [DIPHYLLIN] gave a pIC50 of 4.58.

Test system: BGC-823
Experiment: Cytotoxicity against human BGC-823 cells assessed as reduction in cell viability measured after 4 days by MTT colorimetric assay
Format: functional, cell-based
Conditions: BGC-823, 96 h
Work on `COc1cc2cc3c(c(-c4ccc5c(c4)OCO5)c2cc1OC)C(=O)OC3` yielded a pIC50 of 6.74.

Test system: Calu-1
Experiment: Cytotoxicity against human Calu-1 cells incubated for 24 hrs by AlamarBlue staining based analysis
Format: functional, cell-based
Conditions: Calu-1, 24 h
Work on `COc1cc2cc3c(c(-c4ccc5c(c4)OCO5)c2cc1OC)C(=O)OC3` yielded a pIC50 of 4.73. In the case of `COc1cc2cc(COC(=O)CC(=O)O)c(C(=O)O)c(-c3ccc4c(c3)OCO4)c2cc1OC`, the pIC50 was less than 4.00. Compound `COc1cc2cc(COC(=O)CC(=O)O)c(C(=O)O[C@@H]3O[C@H](COC(=O)CC(C)(O)CC(=O)O)[C@@H](O)[C@H](O)[C@H]3O)c(-c3ccc4c(c3)OCO4)c2cc1OC` (some centres undefined) has a pIC50 of 4.17. In the case of `COc1cc2c(O)c3c(c(-c4ccc5c(c4)OCO5)c2cc1OC)C(=O)OC3` [DIPHYLLIN], the pIC50 was 4.50.

Test system: SARS-CoV-2
Experiment: Antiviral activity against SARS-COV2 infected in african green monkey Vero E6 cells assessed as inhibition of viral replication incubated for 48 hrs by plague assay
Format: functional, organism-based
Conditions: Severe acute respiratory syndrome coronavirus 2, Vero C1008, 48 h
Compound `COc1cc2c(O)c3c(c(-c4ccc5c(c4)OCO5)c2cc1OC)C(=O)OC3` [DIPHYLLIN] has a pIC50 of 5.72.
